# “And” between values parts separate entries of the source, which are not always exact repeats. Equal entries are not always repeated.
# System: iPTH
# Experiment: Phase 2 Main Study: iPTH change from baseline in CKD patients with SHPT
# Assay type: in vivo, human
# Details: for iPTH levels reduced from baseline (FIG. 1) / mean percentage suppression in iPTH from baseline, peak, Day 90, 2 to 4 hours post-dose (exploratory analysis) / mean percentage suppression in iPTH from baseline at the end of 90 days / proportion of patients with ≥30% reduction in iPTH from baseline at end of 90 days (responder rate): patients on dialysis
# Procedure: A randomized, double-blind, placebo-controlled phase 2 clinical study was conducted to assess the efficacy, pharmacokinetics (PK), pharmacodynamics (PD) and safety of 2-methyl-5-((2R,4S)-2-((((R)-1-(naphthalen-1-yl)ethyl)amino)methyl) chroman yl)benzoic acid, hydrochloride (Compound 3), as a monotherapy in patients with CKD with secondary hyperparathyroidism (SHPT). The patients enrolled in the study were either on dialysis or not on dialysis. Patients could continue taking doses (whether stable dosing or otherwise) of calcium supplements, phosphate binders, vitamin D, vitamin D analogues or a combination thereof for the treatment of SHPT in combination with Compound 3. Patients can take at least one calcium supplement, phosphate binder, vitamin D, vitamin D analogue or a combination thereof concurrently or concomitantly with Compound 3. Dosing for such calcium supplements, phosphate binders, vitamin D, vitamin D analogues or a combination thereof for the treatment of SHPT can be individualized based on patient's iPTH levels, and/or can correlate with doses presently used for the treatment of SHPT.
# This was a double-blind, randomized, placebo-controlled, multicenter study with an additional non-randomized open-label arm conducted in patients with secondary hyper-parathyroidism (SHPT) associated with CKD which was further stratified in 2 groups: on dialysis and not on dialysis. The iPTH levels of patients in the “on dialysis” group were in a range of 428.2 pg/ml to 1240.6 pg/ml (mean 857.76 pg/ml) while those in the “not on dialysis” group were in a range of 125.0 pg/ml to 654.7 pg/ml (mean 297.83 pg/ml).
# Total 179 patients were enrolled in this study of which 108 patients were on dialysis and 71 were not on dialysis. Patients of on dialysis group were further randomized to 3 subgroups administering 10 mg Compound 3, 25 mg Compound 3, or placebo once daily in a double blind fashion enrolling 35 patients, 36 patients and 18 patients, respectively, and an additional non-randomized open label arm enrolling 19 patients receiving 20 mg Compound 3, twice daily. A total of 98 patients completed the study. 10 patients discontinued the study. None of the patients discontinued the study due to adverse drug reactions.
# Patients on not on dialysis group were randomized to two treatment subgroups administering 10 mg Compound 3, or placebo once daily in a double blind fashion enrolling 37 and 18 patients, respectively, and an additional non-randomized open label arm enrolling 16 patients receiving 5 mg Compound 3, twice daily. 4 patients discontinued the study. None of the patients discontinued the study due to adverse drug reactions.
# The efficacy, PK, PD and safety of Compound 3, as a monotherapy in patients with CKD with secondary hyperparathyroidism (SHPT), were assessed. One objective of the study was to evaluate the mean percentage change in iPTH from baseline at the end of 90 days. Yet another objective of the study was to determine the proportion of patients with >30% reduction in iPTH from baseline at the end of 90 days. Yet another objective of the study was to ensure safety of patients.
# For efficacy assessments, the primary efficacy assessment included measurement of iPTH and the exploratory efficacy assessment included measurement of parathyroid gland size at scheduled time points. Blood samples for measurement of iPTH were collected during Day −30 to Day −1 (Screening Period); Day 1; Day 8+/−3 days; Day 15+/−3 days; Day 30+/−3 days; Day 60+/−3 days; and Day 90+/−3 days (EOT/Early Discontinuations). Two blood samples were collected during Screening Period and higher of these 2 values was considered as a baseline value. During treatment period of the Main Study, blood samples were collected on Day 30, Day 60, and Day 90. If the blood sample collected on Day 90 could not be analysed for any reason, the second blood sample had to be collected within 3 days of end of treatment (EOT). […]
# [1] = patients not on dialysis, 10 mg QD
smiles,measurement,setting,value
"Cc1ccc([C@@H]2C[C@H](CN[C@H](C)c3cccc4ccccc34)Oc3ccccc32)cc1C(=O)O.Cl [Compound 3, 2-methyl-5-((2R,4S)-2-((((R)-1-(naphthalen-1-yl)ethyl)amino)methyl)chroman-4-yl)benzoic acid hydrochloride]",iPTH levels reduced from baseline (FIG. 2),"patients not on dialysis, 5 mg BID",more than 30%
same,"mean percentage suppression in iPTH from baseline at the end of 90 days (2 to 4 hours post-dose), exploratory analysis","patients not on dialysis, 5 mg BID open label arm",−55.03%
same,iPTH levels reduced from baseline (FIG. 2),[1],more than 30%
same,"mean percentage suppression in iPTH from baseline at the end of 90 days (2 to 4 hours post-dose), exploratory analysis",[1],−48.07%
same,mean percentage suppression in iPTH versus Placebo at the end of Day 90,"patients not on dialysis, 10 mg QD and 5 mg BID",No significant difference
same,difference in proportion of patients who achieved ≥30% reduction in iPTH from baseline at the end of 90 days versus Placebo,"patients not on dialysis, QD or BID dosing regimen, 10 mg per day",not significant
same,iPTH levels reduced from baseline (FIG. 1),10 mg QD,25.65%
same,"mean percentage suppression in iPTH from baseline, peak, Day 90, 2 to 4 hours post-dose (exploratory analysis)",10 mg QD,−79.54%
same,mean percentage suppression in iPTH from baseline at the end of 90 days,"10 mg QD, per protocol",−25.65%
same,iPTH levels reduced from baseline (FIG. 1),20 mg BID,more than 30%
same,mean percentage suppression in iPTH from baseline at the end of 90 days,20 mg BID open label arm,−82.42%
same,"mean percentage suppression in iPTH from baseline, peak, Day 90, 2 to 4 hours post-dose (exploratory analysis)",20 mg BID open label arm,−93.02%
same,proportion of patients with ≥30% reduction in iPTH from baseline at end of 90 days (responder rate),"20 mg BID, hydrochloride",93% and ~90%
same,iPTH levels reduced from baseline (FIG. 1),25 mg QD,more than 30%
same,"mean percentage suppression in iPTH from baseline, peak, Day 90, 2 to 4 hours post-dose (exploratory analysis)",25 mg QD,−85.79%
same,proportion of patients with ≥30% reduction in iPTH from baseline at end of 90 days (responder rate),25 mg QD,around 80%
same,mean percentage suppression in iPTH from baseline at the end of 90 days,"25 mg QD, per protocol",−56.65%

# — patent US20230049917A1, “Pharmaceutical Composition of CASR Modulators and Methods and Uses Thereof” (Lupin Limited, priority 2019, published 2023)
